Assay results published in patent US12673970B2, “Neuroactive steroids and their methods of use” (priority 2020, dated 2026).

molecular target: GABAA receptor ([35S]-TBPS binding, rat brain cortical membranes); experiment: Steroid inhibition of [35S]-TBPS binding; conditions: 3 nM [35S]-TBPS, in the presence of 5 mM GABA
Method: [35S]-t-Butylbicyclophosphorothionate (TBPS) binding assays using rat brain cortical membranes in the presence of 5 mM GABA has been described (Gee et al, J. Pharmacol. Exp. Ther. 1987, 241, 346-353; Hawkinson et al, Mol. Pharmacol. 1994, 46, 977-985; Lewin, A. H et al., Mol. Pharmacol. 1989, 35, 189-194).
Briefly, cortices are rapidly removed following decapitation of carbon dioxide-anesthetized Sprague-Dawley rats (200-250 g). The cortices are homogenized in 10 volumes of ice-cold 0.32 M sucrose using a glass/teflon homogenizer and centrifuged at 1500×g for 10 min at 4° C. The resultant supernatants are centrifuged at 10,000×g for 20 min at 4° C. to obtain the P2 pellets. The P2 pellets are resuspended in 200 mM NaCl/50 mM Na—K phosphate pH 7.4 buffer and centrifuged at 10,000×g for 10 min at 4° C. This washing procedure is repeated twice and the pellets are resuspended in 10 volumes of buffer. Aliquots ([…]) of the membrane suspensions are incubated with 3 nM [35S]-TBPS and 5 mL aliquots of test drug dissolved in dimethyl sulfoxide (DMSO) (final 0.5%) in the presence of 5 mM GABA. The incubation is brought to a final volume of 1.0 mL with buffer. Nonspecific binding is determined in the presence of […] and ranged from 15 to 25%. Following a 90 min incubation at room temp, the assays are terminated by filtration through glass fiber filters (Schleicher and Schuell No. 32) using a cell harvester (Brandel) and rinsed three times with ice-cold buffer. Filter bound radioactivity is measured by liquid scintillation spectrometry. Non-linear curve fitting of the overall data for each drug averaged for each concentration is done using Prism (GraphPad). […] The concentration of test compound producing 50% inhibition (IC50) of specific binding and the maximal extent of inhibition (Imax) are determined for the individual experiments with the same model used for the overall data and then the means±SEM.s of the individual experiments are calculated.
Various compounds are or can be screened to determine their potential as modulators of [35S]-TBPS binding in vitro. These assays are or can be performed in accordance with the above

Compound | IC50
C[C@@]1(O)CC[C@H]2[C@@H](CC[C@@H]3[C@@H]2CC[C@]2(C)[C@@H](C(=O)CCn4cc(C#N)cn4)CC[C@@H]32)C1 [Example 1, 1-(3-((3R,5S,8R,9R,10S,13S,14S,17S)-3-hydroxy-3,13-dimethylhexadecahydro-1H-cyclopenta[a]phenanthren-17-yl)-3-oxopropyl)-1H-pyrazole-4-carbonitrile] | < 100 nM
COC[C@@]1(O)CC[C@H]2[C@@H](CC[C@@H]3[C@@H]2CC[C@]2(C)[C@@H](C(=O)CCn4cc(C#N)cn4)CC[C@@H]32)C1 [Example 2, 1-(3-((3R,5S,8R,9R,10S,13S,14S,17S)-3-hydroxy-3-(methoxymethyl)-13-methylhexadecahydro-1H-cyclopenta[a]phenanthren-17-yl)-3-oxopropyl)-1H-pyrazole-4-carbonitrile] | < 100 nM
C[C@@]1(O)CC[C@H]2[C@H](CC[C@@H]3[C@@H]2CC[C@]2(C)[C@@H](C(=O)CCCn4cc(C#N)cn4)CC[C@@H]32)C1 [Example 3, 1-(4-((3R,5R,8R,9R,10S,13S,14S,17S)-3-hydroxy-3,13-dimethylhexadecahydro-1H-cyclopenta[a]phenanthren-17-yl)-4-oxobutyl)-1H-pyrazole-4-carbonitrile] | < 100 nM
C[C@@]1(O)CC[C@H]2[C@H](CC[C@@H]3[C@@H]2CC[C@]2(C)[C@@H](C(=O)CCCCn4cc(C#N)cn4)CC[C@@H]32)C1 [Example 4, 1-(5-((3R,5R,8R,9R,10S,13S,14S,17S)-3-hydroxy-3,13-dimethylhexadecahydro-1H-cyclopenta[a]phenanthren-17-yl)-5-oxopentyl)-1H-pyrazole-4-carbonitrile] | < 100 nM
C[C@@]1(O)CC[C@H]2[C@H](CC[C@@H]3[C@@H]2CC[C@]2(C)[C@@H](CC(=O)Cn4cc(C#N)cn4)CC[C@@H]32)C1 [Example 5, 1-(3-((3R,5R,8R,9R,10S,13R,14S,17R)-3-hydroxy-3,13-dimethylhexadecahydro-1H-cyclopenta[a]phenanthren-17-yl)-2-oxopropyl)-1H-pyrazole-4-carbonitrile] | 100 to 1000 nM
CC(C)(C(=O)C[C@H]1CC[C@H]2[C@@H]3CC[C@@H]4C[C@](C)(O)CC[C@@H]4[C@H]3CC[C@]12C)n1cc(C#N)cn1 [Example 7, 1-(4-((3R,5R,8R,9R,10S,13R,14S,17R)-3-hydroxy-3,13-dimethylhexadecahydro-1H-cyclopenta[a]phenanthren-17-yl)-2-methyl-3-oxobutan-2-yl)-1H-pyrazole-4-carbonitrile] | 100 to 1000 nM
C[C@H](C(=O)C[C@H]1CC[C@H]2[C@@H]3CC[C@@H]4C[C@](C)(O)CC[C@@H]4[C@H]3CC[C@]12C)n1cc(C#N)cn1 [Example 8, 1-((R)-4-((3R,5R,8R,9R,10S,13R,14S,17R)-3-hydroxy-3,13-dimethylhexadecahydro-1H-cyclopenta[a]phenanthren-17-yl)-3-oxobutan-2-yl)-1H-pyrazole-4-carbonitrile] | 100 to 1000 nM
C[C@@H](C(=O)C[C@H]1CC[C@H]2[C@@H]3CC[C@@H]4C[C@](C)(O)CC[C@@H]4[C@H]3CC[C@]12C)n1cc(C#N)cn1 [Example 9, 1-((S)-4-((3R,5R,8R,9R,10S,13R,14S,17R)-3-hydroxy-3,13-dimethylhexadecahydro-1H-cyclopenta[a]phenanthren-17-yl)-3-oxobutan-2-yl)-1H-pyrazole-4-carbonitrile] | 100 to 1000 nM
C[C@H](C(=O)Cn1cc(C#N)cn1)[C@H]1CC[C@H]2[C@@H]3CC[C@@H]4C[C@](C)(O)CC[C@@H]4[C@H]3CC[C@]12C [Example 10, 1-((S)-3-((3R,5R,8R,9R,10S,13S,14S,17R)-3-hydroxy-3,13-dimethylhexadecahydro-1H-cyclopenta[a]phenanthren-17-yl)-2-oxobutyl)-1H-pyrazole-4-carbonitrile] | < 100 nM
C[C@@H](C(=O)Cn1cc(C#N)cn1)[C@H]1CC[C@H]2[C@@H]3CC[C@@H]4C[C@](C)(O)CC[C@@H]4[C@H]3CC[C@]12C [Example 11, 1-((R)-3-((3R,5R,8R,9R,10S,13S,14S,17R)-3-hydroxy-3,13-dimethylhexadecahydro-1H-cyclopenta[a]phenanthren-17-yl)-2-oxobutyl)-1H-pyrazole-4-carbonitrile] | 100 to 1000 nM
C[C@@]1(O)CC[C@H]2[C@H](CC[C@@H]3[C@@H]2CC[C@]2(C)[C@@H](CC(=O)c4ccc(C#N)cc4)CC[C@@H]32)C1 [Example 12, 4-(2-((3R,5R,8R,9R,10S,13R,14S,17R)-3-hydroxy-3,13-dimethylhexadecahydro-1H-cyclopenta[a]phenanthren-17-yl)acetyl)benzonitrile] | < 100 nM
COC[C@@]1(O)CC[C@@]2(C)[C@H](CC[C@@H]3[C@@H]2CC[C@]2(C)[C@@H](C(=O)CCn4cc(C#N)cn4)CC[C@@H]32)C1 [Example 13, 1-(3-((3R,5R,8R,9S,10S,13S,14S,17S)-3-hydroxy-3-(methoxymethyl)-10,13-dimethylhexadecahydro-1H-cyclopenta[a]phenanthren-17-yl)-3-oxopropyl)-1H-pyrazole-4-carbonitrile] | < 100 nM

system: GABAA receptor ([35S]-TBPS binding, rat brain cortical membranes); experiment: not given; conditions: statement on the positive control; cited from earlier work

Compound | inhibition of TBPS binding (positive control)
Picrotoxin | robustly inhibit TBPS binding
